From patent US20090042913A1, “Indolylalkylthienopyrimidylamines as modulators of the EP2 receptor” (priority 2007, published 2009)

What was measured:
[1] = system: cumulus-oocyte complexes (PGE2-induced cumulus expansion); experiment: Cumulus expansion assay in vitro; assay type: cell-based, mice; details: in competition with PGE2
Procedure: Folliculogenesis is induced in immature female mice at an age of 14-18 days by a single dose (intraperitoneal) of 10 I.U. of PMSG (Pregnant Mare Serum Gonadotropin; Sigma G-4877, Lot 68H0909). 47-50 hours after the injection, the ovaries are removed and the cumulus-oocyte complexes are removed. The cumulus complex is not yet expanded at this stage.
The cumulus-oocyte complexes are then incubated with prostaglandin E2 (PGE2) (0.3 μM), vehicle control (ethanol) or test substances for 20-24 hours. Medium: alpha-MEM medium with 0.1 mM IBMX, pyruvates (0.23 mM) glutamines (2 mM), pen/strep 100 IU/ml pen. and 100 μg/ml strep. and HSA (8 mg/ml). Cumulus expansion is then established through the division into four stages (according to Vanderhyden et al. Dev Biol. 1990 August; 140(2):307-317).

[2] = molecular target: T1, human prostaglandin E2 (subtype EP2) receptor (Homo sapiens, UniProt P43116); experiment: cAMP antagonism assay (HTRF cAMP detection, PGE2-stimulated cells); assay type: cell-based; details: cAMP antagonism test, in presence of PGE2
T1 construct: host or cells: cells in a cell culture plate
T1 sequence (P43116 whole entry): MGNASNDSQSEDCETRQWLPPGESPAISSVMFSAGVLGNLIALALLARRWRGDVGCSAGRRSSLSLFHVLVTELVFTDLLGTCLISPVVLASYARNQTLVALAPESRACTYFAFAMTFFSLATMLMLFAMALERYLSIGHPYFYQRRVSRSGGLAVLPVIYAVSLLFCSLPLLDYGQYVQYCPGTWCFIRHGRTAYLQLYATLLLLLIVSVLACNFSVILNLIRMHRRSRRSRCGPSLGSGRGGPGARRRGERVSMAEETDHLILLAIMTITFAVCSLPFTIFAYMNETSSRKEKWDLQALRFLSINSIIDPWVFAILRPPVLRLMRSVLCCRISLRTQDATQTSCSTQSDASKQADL
Procedure: (§1) The binding of PGE2 to the EP2 subtype of the human PGE2 receptor induces activation of membrane-associated adenylate cyclases and leads to the formation of cAMP. In the presence of the phosphodiesterase inhibitor IBMX, cAMP which has accumulated due to this stimulation and been released by cell lysis is employed in a competitive detection method. In this assay, the cAMP in the lysate competes with cAMP-XL665 for binding of an Eu cryptate-labelled anti-cAMP antibody.
(§2) The two signals are measured in a suitable measuring instrument with a time lag, i.e. after the background fluorescence has declined.
(§3) The substance solutions (0.75 μl) introduced into an assay plate and 30% DMSO are dissolved in 16 μl of a KRSB+IBMX stimulation solution (1× Krebs-Ringer Bicarbonate Buffer; Sigma-Aldrich # K-4002; including 750 μM 3-isobutyl-1-methylxanthine Sigma-Aldrich # I-7018), and then 15 μl thereof are transferred into a media-free cell culture plate which has been washed with KRSB shortly beforehand.
After preincubation at room temperature (RT) for 30 minutes, 5 μl of a 4×PGE2 solution (11 nM) are added, and incubation is carried out in the presence of the agonist at RT for a further 60 min (volume: ˜20 μl) before the reaction is then stopped by adding 5 μl of lysis buffer and incubated at RT for a further 20 min (volume: ˜25 μl). The cell lysate is then transferred into a measuring plate and measured in accordance with the manufacturer's information (cyclic AMP kit Cisbio International # 62AMPPEC).

[3] = molecular target: T1, human prostaglandin E2 (subtype EP2) receptor; experiment: cAMP agonism assay (cellular agonism test); assay type: cell-based; details: without PGE2
Procedure: as §1, §2
as §3, with “1-7018),” for “I-7018),”
After incubation at room temperature (RT; volume: ˜15 μl) for 60 minutes, the reaction is then stopped by adding 5 μl of lysis buffer and incubated at RT for a further 20 min (volume: ˜20 μl). The cell lysate is then transferred into a measuring plate and measured in accordance with the manufacturer's instructions (cyclic AMP kit Cisbio International # 62AMPPEC).

| SMILES | suppression of cumulus expansion ([1]; 100-200 μM) | IC50 [2] [µM] | effect in the cellular agonism test [3] | suppression of cumulus expansion ([1]; 10 μM) [%] |
| --- | --- | --- | --- | --- |
| CC(C)Oc1ccc2c(=O)c3cc(C(=O)O)ccc3oc2c1 [AH 6809, reference compound] | approx. 30% | – | – | – |
| Cc1[nH]c2c(F)ccc(C)c2c1CCNc1ncnc2cc(-c3cccc(F)c3)sc12 [Example 22, [2-(7-fluoro-2,4-dimethyl-1H-indol-3-yl)ethyl]-[6-(3-fluorophenyl)thieno[3,2-d]pyrimidin-4-yl]amine] | – | 0.111 | no inhibition | 45 |
| Cc1[nH]c2c(F)ccc(C)c2c1CCNc1ncnc2cc(-c3ccc(C(F)(F)F)cc3)sc12 [Example 30, [2-(7-fluoro-2,4-dimethyl-1H-indol-3-yl)ethyl]-[6-(4-trifluoromethylphenyl)thieno[3,2-d]pyrimidin-4-yl]amine] | – | 0.101 | – | – |
| Cc1[nH]c2c(F)ccc(C)c2c1CCNc1ncnc2cc(-c3cc(F)ccc3F)sc12 [Example 55, [6-(2,5-difluorophenyl)thieno[3,2-d]pyrimidin-4-yl]-[2-(7-fluoro-2,4-dimethyl-1H-indol-3-yl)ethyl]amine] | – | 0.097 | – | – |
